Laboratory results: US20050004161A1 (published 2005)

melting point: 154.5 to 155.5 °C
Structure (SMILES): Cn1cc(C(=O)NCc2ccc(Cl)cc2)c(=O)c2cc(COCC[C@@H](O)c3ccccc3)sc21
